Holding throughout (test): growth of human tumour cells (NCI), 48 h
The test system of test [1] is COLO 205 colon.
Test [2] deals with HOP-92 NSCLC.
The subject of test [3] is LOX IMVI melanoma.
Test [4] relates to M14 melanoma.
Test [5] relates to NCI-H23 lung.
Test [6] relates to OVCAR-4 ovarian.
Test [7] has as its system SK-MEL-28 melanoma.
For test [8], the system named is SK-OV-3 ovarian.
The subject of test [9] is SN12C renal.
Test [10] deals with SW-620 colon.
Test [11] has as its system UACC-62 melanoma.

Molecules are shown by their SMILES.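 These data come from cells grown in 96-well plates and exposed to compound for 48 hours at five concentrations. GI50: concentration for 50% inhibition of growth. TGI denotes the concentration required for complete inhibition of growth.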

In the case of `O=C(Nc1ccccc1)N(C1=NCC(CI)S1)c1ccc(F)cc1F` (stereo unspecified), the TGI is more than 100 µM in test [1]; 51.1 µM in test [2]; 35.2 µM in test [3]; more than 100 µM in test [4]; more than 100 µM in [5]; more than 100 µM in test [6]. Also, the TGI in test [7] is 83.4 µM; in test [8] it was more than 100 µM; in test [9], more than 100 µM; in test [10], more than 100 µM; in [11], more than 100 µM.
For the molecule `CO[C@@H]1C=C[C@@]23c4cc5c(cc4C(=O)O[C@H]2CN(C)[C@H]3C1)OCO5`, the TGI in [1], in test [2], in test [3], in test [4], in test [5] and in test [6] was more than 100 µM each time. Besides, the TGI in test [7], in [8], in test [9], in [10] and in [11] was more than 100 µM each time.
For `CC(=O)OC1CCCn2c1nc1c2C(=O)C(C)=C(N2CC2)C1=O` (stereo unspecified), the TGI was 1.2 µM in [1]; 54.6 µM in [2]; 1.01 µM in [3]; 0.337 µM in test [4]; 0.373 µM in test [5]; 2.35 µM in test [6]. For the same molecule, the TGI turned out to be 1.14 µM in test [7]; 0.965 µM in [8]; 1.5 µM in test [9]; 0.927 µM in test [10]; 0.77 µM in [11].
Consider `CCCCCCOc1ccc(C(=O)NO)cc1`, for which the TGI in test [1] is 26 µM; in test [2], 40 µM; in test [3], 20.7 µM; in test [4], 34 µM; in test [5], 23 µM; in test [6], more than 66.3 µM. For the same molecule, the TGI in test [7] was 43.9 µM; in test [8] it was 60.3 µM; in test [9], 19.5 µM; in test [10] it was 35.8 µM; in [11], 20.6 µM.
`CCOC(=O)CSc1nnc2cc(CN3CCCC3)c(-c3ccc(Cl)cc3)nn12`: the TGI in test [1], in [2], in test [3], in test [4], in test [5] and in [6] was more than 100 µM in each case. Moreover, the TGI in test [7], in test [8], in test [9], in test [10] and in test [11] was more than 100 µM in each case.
Regarding `Cc1ccc(Nc2c(C#N)[n+]([O-])c3cc(Cl)ccc3[n+]2[O-])cc1`, the TGI in test [1], in test [2], in [3], in test [4], in test [5] and in [6] was more than 100 µM each time. For the same molecule, the TGI in [7], in [8], in test [9], in test [10] and in test [11] was more than 100 µM throughout.
With `CCN(CC)CCNC(=O)c1cc2cc(NC(=O)c3cc4cc(NC(=O)c5cc6cc(N)ccc6[nH]5)ccc4[nH]3)ccc2[nH]1`, the TGI in [1], in [2], in test [3], in [4], in test [5] and in [6] was more than 100 µM throughout. In addition, the TGI in test [7], in test [8], in [9], in [10] and in [11] was more than 100 µM in each case.
On to `Cc1ccc(N=Nc2ccc(O)c(CN(C)C)c2)cc1`, for which the TGI in test [1] is 35.2 µM; in test [2], 67.7 µM; in test [3], 28.6 µM; in test [4], 41.6 µM; in [5], more than 100 µM; in test [6], 53.5 µM. Also, the TGI is 41.1 µM in test [7]; 85.3 µM in test [8]; more than 100 µM in [9]; 70.1 µM in [10]; 44.3 µM in test [11].
Consider `CN(NC(=O)c1cccs1)C1=NCCCCN1`, for which the TGI in test [1], in test [2], in [3], in test [4], in test [5] and in [6] was more than 100 µM each time. The TGI in test [7], in [8], in [10] and in test [11] was more than 100 µM each time.
Turning to `Cc1ccc(-c2cc(C(F)(F)F)nn2-c2ccc(S(N)(=O)=O)cc2)cc1`, the TGI in [1] was 50.8 µM; in test [2], 29.8 µM; in test [3], 31.7 µM; in [4], more than 60 µM; in test [5], 37.7 µM; in test [6], 46.4 µM. For the same molecule, the TGI in [7] is more than 56.2 µM; in test [8], more than 57 µM; in test [9], 42.1 µM; in [10] it was more than 56.3 µM; in test [11] it was more than 53.6 µM. Further, the GI50 in [2] is 12 µM.
`CC1(C)C(O)C[C@@H](O)[C@@]2(C)C1CC[C@]1(C)C2C[C@@H](O)[C@@H]2C([C@@]3(C)CC[C@@H](C(C)(C)O)O3)CCC21C` (stereo partly specified): the TGI in test [1] was found to be 30 µM; in test [2], 23.5 µM; in test [3], 23.2 µM; in test [4] it was 27.7 µM; in test [5], 35.3 µM; in test [6] it was 37.9 µM. Further, the TGI in test [7] came to 27.1 µM; in test [8] it was 33.5 µM; in test [9], 26.9 µM; in test [10], 30.5 µM; in test [11], 22.6 µM.
For `c1cc2c(c(NC3=NCCO3)c1)CCC2`, the TGI in test [1], in test [2], in test [3], in test [4], in [5] and in test [6] was more than 100 µM in each case. The TGI in [7], in test [8], in test [9], in [10] and in test [11] was more than 100 µM each time.
Regarding `Cc1cc(S(=O)(=O)Nc2cc(N)[nH]n2)c(SCc2nc(N)nc(N(C)C)n2)cc1Cl`, the TGI in [1], in test [2], in [3], in test [4], in test [5] and in test [6] was more than 10 µM in each case. The TGI in test [7], in test [8], in [9] and in test [10] was more than 10 µM throughout.
With `O=P1(Oc2ccccc2)N(CCCl)CCN1c1ccccc1` (stereo unspecified), the TGI in [1], in [2], in test [3], in test [4], in test [5] and in test [6] was more than 100 µM each time. In addition, the TGI in test [7], in test [8], in [9], in test [10] and in test [11] was more than 100 µM throughout.
`CN(C)S(=O)(=O)/N=C/c1cccc(/C=N/S(=O)(=O)N(C)C)c1`: the TGI in [1], in [2], in test [3], in test [4], in test [5] and in [6] was more than 100 µM throughout. In addition, the TGI in test [7], in [8], in [9], in [10] and in [11] was more than 100 µM throughout.
As for `COC(=O)[C@@H]1CN(C(C)=O)C(=O)N1C(=O)OCc1ccccc1`, the TGI in test [1], in [2], in test [3], in test [4], in test [5] and in test [6] was more than 100 µM in each case. The TGI in [7], in test [8], in test [9] and in [10] was more than 100 µM throughout.
For the molecule `c1ccc(CNCCCCNCCCNCc2ccccc2)cc1`, the TGI stood at 27.6 µM in [1]; 25.3 µM in [2]; 32.7 µM in [3]; 86.5 µM in test [4]; 47.4 µM in test [5]; 38.2 µM in [6]. Also, the TGI in test [7] is 31.2 µM; in [8], more than 100 µM; in test [9] it was 36.4 µM; in test [10] it was 31.8 µM; in test [11], 32.4 µM.
For `COC(CC1(/C=C/O[Si](C(C)C)(C(C)C)C(C)C)C(=O)N(C)c2ccccc21)OC` (stereo unspecified), the TGI in [1], in test [2], in [3], in test [4], in test [5] and in test [6] was more than 100 µM throughout. Further, the TGI in test [7], in test [8], in test [9], in [10] and in [11] was more than 100 µM throughout.
With `CCc1n[nH]c(=O)n1/N=C/c1ccc(C)cc1`, the TGI in test [1], in test [2], in [3], in test [5], in test [6] and in test [7] was more than 100 µM in each case. Also, the TGI in test [8], in [9], in test [10] and in test [11] was more than 100 µM each time.
For `CCN(CC)c1ccc2cc(C(=O)Nc3ccccc3)c(=N)oc2c1`, the TGI in test [1], in test [2], in [3], in test [4], in test [6] and in test [7] was more than 100 µM each time. The TGI in test [8], in test [9], in test [10] and in test [11] was more than 100 µM in each case.
Regarding `CO/N=C(\C(=O)N(C)n1cnnc1)c1csc(NC(c2ccccc2)(c2ccccc2)c2ccccc2)n1`, the TGI in [1], in [2], in test [3], in test [4], in test [5] and in test [6] was more than 10 µM throughout. Besides, the TGI in test [7], in test [8], in test [9] and in test [10] was more than 10 µM in each case.
Take `C=C(C)[C@H]1C=C[C@@H](OC(=O)c2cccnc2)[C@@]23CO[C@@](C)([C@H](OC(=O)c4cccnc4)[C@@]4(OC(C)=O)C[C@H](C)[C@H](OCCC)[C@@H]4[C@H]2OC(C)=O)[C@H]13`: the TGI in test [1], in test [2], in test [3], in test [4], in [5] and in [6] was more than 15 µM each time. Also, the TGI in test [8], in test [9], in [10] and in [11] was more than 15 µM each time.
As for `NC(=S)N/N=C1\NC(=O)/C(=C/c2ccc3c(c2)OCO3)S1`, the TGI in test [1] came to 71.3 µM; in test [2], 56.7 µM; in [3], 85.2 µM; in test [4], 68.3 µM; in test [5], 54.4 µM; in test [6] it was 75.8 µM. For the same molecule, the TGI in test [7] is 78.7 µM; in test [8] it was more than 100 µM; in [9] it was more than 100 µM; in [10] it was 88.8 µM.
For the molecule `CCCCCCCCCCCCCCCCOCC(Cl)COP(=O)(O)OP(=O)(O)OCC1OC(n2cc(C)c(=O)[nH]c2=O)CC1O` (stereo unspecified), the TGI in test [1], in test [2], in test [3], in [4], in test [5] and in test [6] was more than 100 µM throughout. The TGI in test [7], in test [8], in [9] and in test [10] was more than 100 µM each time.
On to `CC(=O)Nc1cc2c3c(c1)CCCN3CCC2`, for which the TGI in [1], in test [2], in test [3], in test [4], in test [5] and in test [6] was more than 100 µM in each case. For the same molecule, the TGI in [7], in [8], in test [10] and in [11] was more than 100 µM throughout.

Source of the values: PubChem BioAssay (NCI).
